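How tested: cells in 96-well plates exposed to compound for 48 hours at five concentrations. GI50 = concentration required for 50% inhibition of growth. TGI: concentration producing complete growth inhibition.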
Assays:
Assay in all cases: NCI tumour cell line growth inhibition, 48 h
786-0 renal = system: 786-0 renal
A498 renal = system: A498 renal
A549 NSCLC = system: A549 NSCLC
ACHN renal = system: ACHN renal
BT-549 breast = system: BT-549 breast
CAKI-1 renal = system: CAKI-1 renal
CCRF-CEM leukemia = system: CCRF-CEM leukemia
COLO 205 colon = system: COLO 205 colon
DU-145 prostate = system: DU-145 prostate
EKVX NSCLC = system: EKVX NSCLC
HCC-2998 colon = system: HCC-2998 colon
HCT-116 colon = system: HCT-116 colon
HCT-15 colon = system: HCT-15 colon
HL-60(TB) leukemia = system: HL-60(TB) leukemia
HOP-62 NSCLC = system: HOP-62 NSCLC
HOP-92 NSCLC = system: HOP-92 NSCLC
HS 578T breast = system: HS 578T breast
HT29 colon = system: HT29 colon
IGROV1 ovarian = system: IGROV1 ovarian
K-562 leukemia = system: K-562 leukemia
KM12 colon = system: KM12 colon
LOX IMVI melanoma = system: LOX IMVI melanoma
M14 melanoma = system: M14 melanoma
MALME-3M melanoma = system: MALME-3M melanoma
MCF7 breast = system: MCF7 breast
MDA-MB-231 breast = system: MDA-MB-231 breast
MDA-MB-435 = system: MDA-MB-435
MOLT-4 leukemia = system: MOLT-4 leukemia
NCI-H226 lung = system: NCI-H226 lung
NCI-H23 lung = system: NCI-H23 lung
NCI-H460 lung = system: NCI-H460 lung
NCI-H522 lung = system: NCI-H522 lung
NCI/ADR-RES ovarian = system: NCI/ADR-RES ovarian
OVCAR-3 ovarian = system: OVCAR-3 ovarian
OVCAR-4 ovarian = system: OVCAR-4 ovarian
OVCAR-5 ovarian = system: OVCAR-5 ovarian
OVCAR-8 ovarian = system: OVCAR-8 ovarian
PC-3 prostate = system: PC-3 prostate
RPMI-8226 leukemia = system: RPMI-8226 leukemia
RXF 393 renal = system: RXF 393 renal
SF-268 CNS = system: SF-268 CNS
SF-295 CNS = system: SF-295 CNS
SF-539 CNS = system: SF-539 CNS
SK-MEL-2 melanoma = system: SK-MEL-2 melanoma
SK-MEL-28 melanoma = system: SK-MEL-28 melanoma
SK-MEL-5 melanoma = system: SK-MEL-5 melanoma
SK-OV-3 ovarian = system: SK-OV-3 ovarian
SN12C renal = system: SN12C renal
SNB-19 CNS = system: SNB-19 CNS
SNB-75 CNS = system: SNB-75 CNS
SR leukemia = system: SR leukemia
SW-620 colon = system: SW-620 colon
T-47D breast = system: T-47D breast
TK-10 renal = system: TK-10 renal
U251 CNS = system: U251 CNS
UACC-257 melanoma = system: UACC-257 melanoma
UACC-62 melanoma = system: UACC-62 melanoma
UO-31 renal = system: UO-31 renal
MDA-N = system: MDA-N

In the case of `c1ccc2c(c1)Nc1ccncc1S2`, the GI50 (786-0 renal) is reported as 28.8 µM, the TGI (786-0 renal) is reported as > 100 µM and the GI50 (A498 renal) is reported as 5.13 µM. The TGI (A498 renal) was 24.4 µM, the GI50 (A549 NSCLC) was 26.3 µM and the TGI (A549 NSCLC) was > 100 µM. For the same compound, the GI50 (ACHN renal) was 17.9 µM, the TGI (ACHN renal) was > 100 µM and the GI50 (BT-549 breast) was 29.6 µM. For the same compound, the TGI (BT-549 breast) was > 100 µM, the GI50 (CAKI-1 renal) was 11.4 µM and the TGI (CAKI-1 renal) was 56 µM. The GI50 (CCRF-CEM leukemia) was 28.2 µM, the TGI (CCRF-CEM leukemia) was > 100 µM and the GI50 (COLO 205 colon) was 11.5 µM. For the same compound, the TGI (COLO 205 colon) was 37.1 µM, the GI50 (DU-145 prostate) was 32.3 µM and the TGI (DU-145 prostate) was > 100 µM. For the same compound, the GI50 (EKVX NSCLC) was 12.1 µM, the TGI (EKVX NSCLC) was 81.5 µM and the GI50 (HCC-2998 colon) was 27.9 µM. For the same compound, the TGI (HCC-2998 colon) was > 100 µM, the GI50 (HCT-116 colon) was 20.5 µM and the TGI (HCT-116 colon) was > 100 µM. For the same compound, the GI50 (HCT-15 colon) was 28 µM, the TGI (HCT-15 colon) was > 100 µM and the GI50 (HL-60(TB) leukemia) was 19.4 µM. For the same compound, the TGI (HL-60(TB) leukemia) was 75.4 µM, the GI50 (HOP-62 NSCLC) was 19.5 µM and the TGI (HOP-62 NSCLC) was > 100 µM. The GI50 (HOP-92 NSCLC) was 8.07 µM, the TGI (HOP-92 NSCLC) was 71.6 µM and the GI50 (HS 578T breast) was 11.4 µM. The TGI (HS 578T breast) was 48.4 µM, the GI50 (HT29 colon) was 18.4 µM and the TGI (HT29 colon) was > 100 µM. The GI50 (IGROV1 ovarian) was 22.8 µM, the TGI (IGROV1 ovarian) was 99.6 µM and the GI50 (K-562 leukemia) was 29.4 µM. The TGI (K-562 leukemia) was > 100 µM, the GI50 (KM12 colon) was 14.2 µM and the TGI (KM12 colon) was 42.5 µM. The GI50 (LOX IMVI melanoma) was 23.8 µM, the TGI (LOX IMVI melanoma) was > 100 µM and the GI50 (M14 melanoma) was 32.4 µM. For the same compound, the TGI (M14 melanoma) was > 100 µM, the GI50 (MALME-3M melanoma) was 28.2 µM and the TGI (MALME-3M melanoma) was 89.8 µM. For the same compound, the GI50 (MCF7 breast) was 28.7 µM, the TGI (MCF7 breast) was > 100 µM and the GI50 (MDA-MB-231 breast) was 26.9 µM. For the same compound, the TGI (MDA-MB-231 breast) was > 100 µM, the GI50 (MDA-MB-435) was 23.2 µM and the TGI (MDA-MB-435) was > 100 µM. For the same compound, the GI50 (MOLT-4 leukemia) was 31.1 µM, the TGI (MOLT-4 leukemia) was > 100 µM and the GI50 (NCI-H226 lung) was 17.1 µM. The TGI (NCI-H226 lung) was > 100 µM, the GI50 (NCI-H23 lung) was 20.7 µM and the TGI (NCI-H23 lung) was > 100 µM. The GI50 (NCI-H460 lung) was 18.2 µM, the TGI (NCI-H460 lung) was 49.7 µM and the GI50 (NCI-H522 lung) was 11.8 µM. For the same compound, the TGI (NCI-H522 lung) was 65.7 µM, the GI50 (NCI/ADR-RES ovarian) was 21.4 µM and the TGI (NCI/ADR-RES ovarian) was > 100 µM. The GI50 (OVCAR-3 ovarian) was 18.6 µM, the TGI (OVCAR-3 ovarian) was 57 µM and the GI50 (OVCAR-4 ovarian) was 23.7 µM. The TGI (OVCAR-4 ovarian) was > 100 µM, the GI50 (OVCAR-5 ovarian) was 19 µM and the TGI (OVCAR-5 ovarian) was > 100 µM. The GI50 (OVCAR-8 ovarian) was 21.6 µM, the TGI (OVCAR-8 ovarian) was > 100 µM and the GI50 (PC-3 prostate) was 27 µM. For the same compound, the TGI (PC-3 prostate) was > 100 µM, the GI50 (RPMI-8226 leukemia) was 17 µM and the TGI (RPMI-8226 leukemia) was 78.1 µM. For the same compound, the GI50 (RXF 393 renal) was 11.9 µM, the TGI (RXF 393 renal) was 32 µM and the GI50 (SF-268 CNS) was 24.5 µM. The TGI (SF-268 CNS) was > 100 µM, the GI50 (SF-295 CNS) was 14.7 µM and the TGI (SF-295 CNS) was 68.8 µM. It also gave a GI50 (SF-539 CNS) of 19.7 µM, a TGI (SF-539 CNS) of 67.1 µM and a GI50 (SK-MEL-2 melanoma) of 13.6 µM. The TGI (SK-MEL-2 melanoma) was 36.7 µM, the GI50 (SK-MEL-28 melanoma) was 31.5 µM and the TGI (SK-MEL-28 melanoma) was > 100 µM. For the same compound, the GI50 (SK-MEL-5 melanoma) was 25.8 µM, the TGI (SK-MEL-5 melanoma) was > 100 µM and the GI50 (SK-OV-3 ovarian) was 37 µM. For the same compound, the TGI (SK-OV-3 ovarian) was > 100 µM, the GI50 (SN12C renal) was 27.8 µM and the TGI (SN12C renal) was > 100 µM. For the same compound, the GI50 (SNB-19 CNS) was 25.7 µM, the TGI (SNB-19 CNS) was > 100 µM and the GI50 (SNB-75 CNS) was 18.1 µM. It also gave a TGI (SNB-75 CNS) of 56.6 µM, a GI50 (SR leukemia) of 13.4 µM and a TGI (SR leukemia) of 50.3 µM. It also gave a GI50 (SW-620 colon) of 21.2 µM, a TGI (SW-620 colon) of 92.6 µM and a GI50 (T-47D breast) of 22.4 µM. For the same compound, the TGI (T-47D breast) was 96.3 µM, the GI50 (TK-10 renal) was 22.7 µM and the TGI (TK-10 renal) was 83.4 µM. For the same compound, the GI50 (U251 CNS) was 27.2 µM, the TGI (U251 CNS) was > 100 µM and the GI50 (UACC-257 melanoma) was 31.1 µM. For the same compound, the TGI (UACC-257 melanoma) was > 100 µM, the GI50 (UACC-62 melanoma) was 16.5 µM and the TGI (UACC-62 melanoma) was 56.9 µM. It also gave a GI50 (UO-31 renal) of 12.7 µM and a TGI (UO-31 renal) of 74 µM.
`CC1CN=C(N(Cc2ccccc2)C(=O)Nc2ccc(Cl)c(Cl)c2)S1` (centres undefined) was tested, and the TGI (786-0 renal) was > 100 µM, the TGI (A498 renal) was > 100 µM and the TGI (A549 NSCLC) was > 100 µM. The TGI (ACHN renal) was 75 µM, the TGI (CAKI-1 renal) was > 100 µM and the TGI (CCRF-CEM leukemia) was > 10 µM. The TGI (COLO 205 colon) was > 100 µM, the TGI (DU-145 prostate) was > 100 µM and the TGI (EKVX NSCLC) was > 100 µM. For the same compound, the TGI (HCC-2998 colon) was > 10 µM, the TGI (HCT-116 colon) was > 100 µM and the TGI (HCT-15 colon) was > 100 µM. The TGI (HL-60(TB) leukemia) was > 10 µM, the TGI (HOP-62 NSCLC) was > 100 µM and the TGI (HOP-92 NSCLC) was 54.5 µM. For the same compound, the TGI (HS 578T breast) was > 100 µM, the TGI (HT29 colon) was > 100 µM and the TGI (IGROV1 ovarian) was > 100 µM. The TGI (K-562 leukemia) was > 100 µM, the TGI (KM12 colon) was > 100 µM and the TGI (LOX IMVI melanoma) was > 100 µM. The TGI (M14 melanoma) was 48.8 µM, the TGI (MALME-3M melanoma) was > 100 µM and the TGI (MCF7 breast) was > 100 µM. The TGI (MDA-MB-231 breast) was 86.6 µM, the TGI (MDA-N) was > 100 µM and the TGI (MOLT-4 leukemia) was > 10 µM. For the same compound, the TGI (NCI-H23 lung) was > 100 µM, the TGI (NCI-H460 lung) was > 100 µM and the TGI (NCI/ADR-RES ovarian) was > 100 µM. For the same compound, the TGI (OVCAR-3 ovarian) was > 100 µM, the TGI (OVCAR-4 ovarian) was > 100 µM and the TGI (OVCAR-5 ovarian) was > 100 µM. The TGI (OVCAR-8 ovarian) was > 100 µM, the TGI (PC-3 prostate) was > 100 µM and the TGI (RPMI-8226 leukemia) was > 100 µM. The TGI (SF-268 CNS) was > 100 µM, the TGI (SF-295 CNS) was > 10 µM and the TGI (SF-539 CNS) was > 100 µM. It also gave a TGI (SK-MEL-2 melanoma) of 68.3 µM, a TGI (SK-MEL-28 melanoma) of 68.8 µM and a TGI (SK-MEL-5 melanoma) of 51.9 µM. The TGI (SK-OV-3 ovarian) was > 100 µM, the TGI (SN12C renal) was 69.3 µM and the TGI (SNB-19 CNS) was > 100 µM. The TGI (SNB-75 CNS) was > 100 µM, the TGI (SR leukemia) was > 100 µM and the TGI (SW-620 colon) was > 100 µM. The TGI (T-47D breast) was > 100 µM, the TGI (TK-10 renal) was > 100 µM and the TGI (U251 CNS) was > 100 µM. The TGI (UACC-257 melanoma) was > 100 µM and the TGI (UO-31 renal) was 97.9 µM.

Reference: PubChem BioAssay (NCI)
